In patent publication US10156564B1, “Methods of detecting biomarkers of endoplasmic reticulum (ER) stress-associated kidney diseases” (Washington University, priority 2016, dated 2018):
“Also recorded” adds a separate entry of the source.

Columns and labels:
mouse primary podocytes = experiment: CRELD2 expression in mouse primary podocytes treated with ER stress inducers (WB, immunofluorescence); assay type: cell-based; conditions: for CRELD2 immunofluorescence in podocytes: TM 2 μg/ml or TG 1 μM for 24 h, overlapped with BiP; for CRELD2 expression in cell lysates (WB): TM 2 μg/ml or TG 1 μM for 24 h vs DMSO vehicle
Procedure: FIG. 9A is an image of a Western blot showing mouse primary podocytes were treated with DMSO (control), tunicamycin (TM) (2 μg/ml) or thapsigargin (TG) (1 μM) for 24 h. Cell lysates were analyzed by WB with the indicated antibodies. TM and TG are ER stress inducers.
FIG. 9B is a series of images showing control and TM- or TG-treated mouse podocytes, as described in FIG. 9A stained for CRELD2 (red) and BiP (green). Nuclei were counterstained with Hoechst 33342 (blue). Scale bar, 40 μm.
CRELD2 is a urinary biomarker for detecting podocyte ER stress in the early stages of podocyte ER stress-induced nephrotic syndrome (NS) in mice. Initial experiments (see e.g., Example 2) determined ER stress increases CRELD2 expression and secretion in mouse primary podocytes. Mouse podocytes were treated for 24 h with tunicamycin (TM), which activates ER stress by blocking N-linked glycosylation in the ER (26), or TG, which depletes ER calcium through inhibition of ER calcium ATPase (27). […] The effects of ER stress on CRELD2 secretion were also examined.
Isolated glomeruli from Lamb2^+/−, Lamb2^−/−; Tg-C321R and Lamb2^−/−; Tg-WT mice at P27 were suspended in DMEM/Ham's F-12 (2:1) that contained 0.45 μm-filtered 3T3-L1 supernatant, 5% heat inactivated FBS, ITS (Insulin-Transferrin-Sodium Selenite) liquid media supplement, and 100 U/ml penicillin-streptomycin; plated onto collagen type I-coated petri dishes; and incubated at 37° C. in room air with 5% CO2. After 3 days, cell colonies began to sprout around the glomeruli. […] Only passages 1-2 podocytes from the indicated genotypes were used in the in vitro studies.
For immunocytochemistry, mouse primary podocytes were seeded on cover slips coated with 5 μg/ml rat collagen I that was dissolved in 0.02M acetic acid in 24 well plates for 48 hours. After 24 hours treatment with DMSO, TM or TG, the cells were fixed with 4% PFA for 20 minutes and permeabilized with 1% Triton X-100 for 5 minutes at room temperature, blocked with 1% BSA for 30 minutes at room temperature, followed by incubation with goat anti-mouse CRELD2 (R&D) and rabbit anti-mouse BiP antibodies for an additional 1 hour at room temperature. The cover slips were washed with PBS and incubated with the corresponding Alexa 594- or Alexa 488-conjugated secondary antibodies and Hoechst 33342 to stain nuclei. The cover slips were then mounted with anti-quench solution and visualized using a fluorescence microscope (Nikon).
Isolated mouse glomeruli and cultured mouse primary podocytes were lysed by RIPA buffer (Sigma) containing protease inhibitor cocktail (Roche, Indianapolis, Ind.). TM untreated- and treated-kidneys, as well as sham-operated and I/R-injured kidneys, were extracted using the same lysis buffer with the protease inhibitors and homogenized by sonication. The protein concentrations of cell, glomerular and kidney lysates were determined by Bio-Rad protein assay (Hercules, Calif.) using BSA as a standard. Denatured proteins were separated on SDS polyacrylamide gel electrophoresis (SDS-PAGE) and then transferred to PVDF membranes. Blots were blocked with 5% non-fat milk for 1 hour and then incubated overnight with primary antibodies. The membranes were washed with Tris-buffered saline/TWEEN® (polysorbate) buffer and incubated with the appropriate HRP-conjugated secondary antibodies. […] Relative intensities of protein bands were quantified using ImageJ (NIH) analysis software.

C57BL/6J mice [1] = experiment: TM-induced AKI mouse model (kidney and urine CRELD2/BiP, histology); assay type: in vivo; conditions: for BiP in ER stressed-tubular cells (immunofluorescence): 1 day and 5 days post TM injection (FIG. 19); for urinary CRELD2 excretion (WB): urine within 24 hours after TM 1 mg/kg IP vs vehicle; for BiP in urine (immunodetection): within 24 hr from TM injection, no obvious histological changes of kidney injury (FIG. 20)
Procedure: FIG. 10A is a bar graph showing quantitative RT-PCR analysis of relative transcript levels of CRELD2 in kidneys at the indicated time points following TM injection (1 mg/kg, IP) as compared to DMSO vehicle-injected controls. Absolute levels were normalized first to those of GAPDH and then to the levels in the control kidneys (mean±SD). **P<0.01 and ***P<0.001 by ANOVA (n=3 mice per group).
FIG. 10B is a series of images showing dual IF staining for CRELD2 (green) and LTL (red) on paraformaldehyde-fixed, sucrose-cryoprotected kidney sections from mice treated with vehicle or TM (1 mg/kg) at the indicated time points. Nuclei were counterstained with Hoechst 33342 (blue). G: glomerulus. Scale bars, 40 μm.
FIG. 10C is a Western blot showing whole-kidney lysates from mice treated with or without TM (1 mg/kg) at different time points were analyzed by WB for levels of CRELD2 and β-actin.
FIG. 10E is an image of a Western blot showing the detection of urinary CRELD2 within 1 day of TM injection. Urines were collected for 24 hours after the mice were injected with vehicle or 1 mg/kg TM (IP). Crude urine samples from mice treated with vehicle (n=8) or TM (n=8) were analyzed by WB for CRELD2 excretion. The urinary CRELD2 excretion was normalized to 2 μg of urine Cr excretion.
Intraperitoneal (IP) injection of TM in mice is a well characterized AKI model caused by renal proximal tubular ER stress (29). […] In comparison, glomeruli and other organs are spared (21, 29).
TM was dissolved in DMSO at 2 mg/ml, and injected intraperitoneally at 1 mg/kg into 6-10 weeks old C57BL/6J mice. Urine was collected from metabolic cages in which the mice were immediately placed after the injection. 1 day or 5 days after the injection, sera were obtained, and kidneys were harvested. One kidney was snap frozen in dry ice and stored at −70 C until further processing for protein and RNA. The other kidney was fixed in 4% paraformaldehyde (PFA) (pH 7.4) at 4 C and then transferred to 15% and 30% sucrose/PBS for OCT-embedded cryosections.
For dual staining of CRELD2 with biotinylated LTL in mouse kidneys, […]. After dewaxing, PFA-fixed, sucrose-cryoprotected kidney sections from control or TM-treated mice were subjected to antigen retrieval by immersion in 10 mM citric acid buffer (pH 6.0) for 5 minutes at 95 C. […] Nonspecific avidin binding was blocked by an avidin/biotin blocking kit (Vector laboratories) before incubating kidney sections with 1% BSA for 30 minutes at room temperature. The slides were stained with a goat anti-mouse CRELD2 antibody (R&D) together with biotinylated LTL overnight at 4° C., followed by an Alexa 488-conjugated anti-goat secondary antibody and Alexa 594-conjugated streptavidin as well as Hoechst 33342. For CRELD2 staining in sham-operated and post-ischemic kidneys, the fluorescent signal was further amplified using a Fluorescein tyramide amplification kit (Perkin-Elmer, Waltham, Mass.) according to the manufacturer's instructions. Slides were analyzed under a fluorescence microscope (Nikon).
Isolated mouse glomeruli and cultured mouse primary podocytes were lysed by RIPA buffer (Sigma) containing protease inhibitor cocktail (Roche, Indianapolis, Ind.). TM untreated- and treated-kidneys, as well as sham-operated and I/R-injured kidneys, were extracted using the same lysis buffer with the protease inhibitors and homogenized by sonication. The protein concentrations of cell, glomerular and kidney lysates were determined by Bio-Rad protein assay (Hercules, Calif.) using BSA as a standard. Denatured proteins were separated on SDS polyacrylamide gel electrophoresis (SDS-PAGE) and then transferred to PVDF membranes. Blots were blocked with 5% non-fat milk for 1 hour and then incubated overnight with primary antibodies. The membranes were washed with Tris-buffered saline/TWEEN® (polysorbate) buffer and incubated with the appropriate HRP-conjugated secondary antibodies. […]

C57BL/6J mice [2] = conditions: cited from earlier work

**Q.** Which “CRELD2 immunofluorescence in podocytes” value (mouse primary podocytes) does the source give for `C/C=C(/C)C(=O)O[C@H]1C(C)=C2[C@H]([C@@H]1OC(=O)CCCCCCC)[C@@](C)(OC(C)=O)C[C@H](OC(=O)CCC)[C@@]1(O)[C@H]2OC(=O)[C@@]1(C)O` [TG, thapsigargin] here?
**A.** The value was “upregulated”.

**Q.** And the “CRELD2 expression in cell lysates (WB)” value (mouse primary podocytes)?
**A.** Its value is “induced expression of CRELD2”.

**Q.** Which “CRELD2 immunofluorescence in podocytes” value (mouse primary podocytes) does the source give for tunicamycin [TM] here?
**A.** The value was “upregulated”.

**Q.** What about the “CRELD2 expression in cell lysates (WB)” value (mouse primary podocytes) of the same molecule?
**A.** The value was “induced expression of CRELD2”.

**Q.** What about the “form of CRELD2 expressed (WB)” value (mouse primary podocytes; TM 2 μg/ml, 24 h) of the same molecule?
**A.** The value was “underglycosylated form of CRELD2”.

**Q.** And the “CRELD2 in ER-stressed proximal tubular cells (marked by LTL)” value (C57BL/6J mice [1]; 1 day and 5 days post TM injection (FIG. 4))?
**A.** The value was “upregulated”.

**Q.** What about the “BiP in ER stressed-tubular cells (immunofluorescence)” value (C57BL/6J mice [1]) of the same molecule?
**A.** The value was “upregulated”.

**Q.** And the “BiP in ER stressed-tubular cells (immunofluorescence)” value (C57BL/6J mice [1]; listed as tunicamycin)?
**A.** The value was “upregulation”.

**Q.** What about the “CRELD2 immunostaining in proximal tubules (co-IF with LTL)” value (C57BL/6J mice [1]; 5 days post-injection, TM 1 mg/kg IP) of the same molecule?
**A.** The value was “subsided”.

**Q.** What about the “CRELD2 induction in glomeruli (IF)” value (C57BL/6J mice [1]; TM-injected kidneys, 1 mg/kg IP) of the same molecule?
**A.** The value was “did not exhibit CRELD2 induction”.

**Q.** And the “BiP in kidney lysates (immunodetection)” value (C57BL/6J mice [1]; TM-injected mice (FIG. 18))?
**A.** Its value is “induced”.

**Q.** And the “CRELD2 in kidney lysates (immunodetection)” value (C57BL/6J mice [1]; TM-injected mice, time not stated (FIG. 3))?
**A.** Its value is “induced”.

**Q.** What about the “CRELD2 transcript levels in whole-kidney lysates (RT-PCR)” value (C57BL/6J mice [1]; day 1 after TM 1 mg/kg IP vs DMSO vehicle or day 5) of the same molecule?
**A.** The value was “significantly increased”.

**Q.** And the “CRELD2 immunostaining in proximal tubules (co-IF with LTL)” value (C57BL/6J mice [1]; day 1 following TM 1 mg/kg IP vs controls)?
**A.** The value was “substantially upregulated”.

**Q.** What about the “CRELD2 protein expression in kidneys (WB)” value (C57BL/6J mice [1]; day 1 vs controls or day 5 post-injection, TM 1 mg/kg IP) of the same molecule?
**A.** The value was “higher”.

**Q.** And the “urinary CRELD2 excretion (WB)” value (C57BL/6J mice [1])?
**A.** Its value is “can be detected; also recorded: dramatically increased”.

**Q.** And the “urinary CRELD2 excretion (WB)” value (C57BL/6J mice [1]; listed as tunicamycin)?
**A.** Its value is “immunodetection of CRELD2 in the urine”.

**Q.** What about the “BiP in urine (immunodetection)” value (C57BL/6J mice [1]) of the same molecule?
**A.** Its value is “detected”.

**Q.** And the “BiP in urine (immunodetection)” value (C57BL/6J mice [1]; listed as tunicamycin)?
**A.** The value was “immunodetection of BiP in urine”.

**Q.** And the “ER stress response genes including BiP, CHOP, MANF and EDEM” value (C57BL/6J mice [2]; day 1 after TM injection)?
**A.** Its value is “upregulated”.

**Q.** What about the “renal function and histology” value (C57BL/6J mice [2]; day 1 after TM injection) of the same molecule?
**A.** Its value is “normal renal function and the absence of conspicuous histologic changes”.

**Q.** And the “renal histology after IP injection of TM” value (C57BL/6J mice [2]; peaks between 4 and 5 days after injection, glomeruli and other organs spared)?
**A.** Its value is “extensive tubular dilation, epithelial flattening, tubular basement membrane denudation and loss of brush borders in proximal tubules”.
